Measurements from patent US10314870B2, “Tropism modified cancer terminator virus (Ad.5/3 CTV;AD.5/3-CTV-M7)” (priority 2012, dated 2019).

Test system: GBM6 intra-cerebral tumors
Assay: Survival of mice with orthotopic GBM6 tumors after intratumoral virus infusion
Type: in vivo, athymic mice
Settings: virus 1×10^8 pfu intratumoral day 7; SAHA 25 mg/kg QD PO for 5 days
Experimental: FIG. 24. SAHA enhances MDA-7/IL-24 toxicity in vivo. GBM6 cells (0.5×10^6) were implanted into the brains of athymic mice. Seven days later tumors were infused with 1×10^8 pfu of either Ad.5/3-cmv or Ad.5/3-mda-7. Twenty-four h after virus infusion animals were treated with vehicle diluent (cremophore, PO) or vorinostat (SAHA, 25 mg/kg QD, PO) for 5 days. Animal survival was monitored on a daily basis (n=2, 8 animals total).
FIG. 25A-E. Ad.5/3-PEG-E1A-mda-7 (Ad.5/3-CTV; Ad.5/3-CTV-M7) prolongs animal survival in a dose-dependent fashion and does so to a greater extent than Ad.5/3- mda-7. Panel A. GBM6-luciferase cells (0.5 ×10^6) were implanted into the brains of athymic mice. Seven days later tumors were infused with 1×10^8 pfu of either: Ad.5/3-cmv: Ad.5/3-mda-7; Ad.5/3-PEG-E1A; or Ad.5/3-PEG-E1A-mda-7 (Ad.5/3-CTV; Ad.5/3-CTV-M7). On the days indicated in the graph animals were injected with luciferin (150 mg/kg) and were imaged 15 min later following placement into an IVIS Xenogen imager. […] Animal survival was monitored on a daily basis (n=2, 6 animals total) ((a) p<0.04 greater survival than Ad.5/3-cmv; (b) p<0.0008 greater survival than Ad.5/3-cmv; (c) p<0.04 greater survival than Ad.5/3-mda-7; (d) p<0.004 greater survival than Ad.5/3-mda-7; (e) p<0.0008 greater survival than Ad.5/3-PEG-E1A-mda-7 (Ad.5/3-CTV; Ad.5/3-CTV-M7) at a dose of 3×10^8 pfu). […]

## O=C(CCCCCCC(=O)Nc1ccccc1)NO [SAHA]
  animal survival: did not significantly enhance animal survival
